Source: publication PMC10458253, “Unraveling the In Vitro Toxicity Profile of Psychedelic 2C Phenethylamines and Their N-Benzylphenethylamine (NBOMe) Analogues” (Pharmaceuticals, 2023)

How the values were obtained:
hMAO-A = target: T1, hMAO-A (Homo sapiens, UniProt P21397); test: hMAO-A inhibitory activity assay (kynuramine); assay type: biochemical; details: read-out: % inhibition at 10 µM hMAO-A, kynuramine substrate
T1 construct: purchased Sigma Aldrich; host or cells: insect cells (BTI-TN-5B1-4), recombinant baculovirus
T1 sequence (P21397 1-527): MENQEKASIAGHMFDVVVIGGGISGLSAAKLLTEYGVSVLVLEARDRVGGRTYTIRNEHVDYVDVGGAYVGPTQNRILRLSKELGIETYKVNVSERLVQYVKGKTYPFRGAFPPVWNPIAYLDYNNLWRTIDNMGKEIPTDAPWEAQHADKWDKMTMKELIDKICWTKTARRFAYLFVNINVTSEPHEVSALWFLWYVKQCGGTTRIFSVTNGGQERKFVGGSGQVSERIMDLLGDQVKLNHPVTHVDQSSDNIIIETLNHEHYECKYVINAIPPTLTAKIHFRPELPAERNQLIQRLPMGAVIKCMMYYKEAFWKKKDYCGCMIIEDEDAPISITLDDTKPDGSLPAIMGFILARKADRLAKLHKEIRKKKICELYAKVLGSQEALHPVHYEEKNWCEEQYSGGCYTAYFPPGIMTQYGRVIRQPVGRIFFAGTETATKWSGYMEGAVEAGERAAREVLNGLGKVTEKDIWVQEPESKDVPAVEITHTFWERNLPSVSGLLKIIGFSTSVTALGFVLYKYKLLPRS
Protocol: (§1) The hMAO inhibitory activities were assessed in microsomal MAO isoforms, prepared from insect cells (BTI-TN-5B1-4) infected with recombinant baculovirus containing cDNA inserts for hMAO-A or hMAO-B, by measuring the enzymatic conversion rates of kynuramine into 4-hydroxyquinoline. […] All assays were performed in sodium phosphate buffer solution 50 mM pH 7.4.
(§2) The percentages of MAO inhibition of each compound were determined from three independent experiments performed in triplicate.

[1] = Chromatographic Hydrophobicity Index (CHI) by HPLC, CHILogD7.4; details: pH 7.4
Protocol: The CHI values at pH 7.4 were determined using an experimental protocol described elsewhere [23, 25]. The CHI values were assessed from experimental retention times (tR) of the compounds under study and a mixture of reference compounds obtained on the HPLC system with a Luna C18 (2) column (150 × 4.6 mm, 5 µm, Phenomenex, CA, USA). […] Mobile phase A was 10 mM ammonium acetate (pH 7.4) and mobile phase B was acetonitrile. The following gradient program was applied: 0–7 min 0–100% B, 7–15 min 100% B, 15–17 min 100–0% B. The flow was 1 mL/min, and the injection volume was 40 μL.

[2] = CHI on Immobilized Artificial Membrane (IAM) HPLC, Kpcell; assay type: physicochemical; details: partition between internal and external cellular media; estimated from experimental CHI(IAM)
Protocol: The CHI on IAM (CHI (IAM)) values were determined from the experimental tR obtained on the HPLC system with an IAM.PC.DD2 column (100 × 4.6 mm, 10 µm, Regis Technologies, Inc., Morton Grove, IL, USA). […] The Log Kpcell (partition between internal and external cellular media) values were estimated from the drugs’ experimental CHI IAM values using Equations (2) and (3) described elsewhere. Log kIAM = 0.046 CHI(IAM) + 0.42(2) Log Kpcell = 1.1 Log kIAM(3)

HepG2 cells = test: Resazurin reduction cytotoxicity assay, HepG2; assay type: cell-based; details: HepG2, 24 h; for Top (maximal effect): maximum cell death of fitted curve; for EC50: Homo sapiens, cell death curves 0–2000 µM, read-out: EC50 (half-maximum-effect concentrations)
Protocol: HepG2 cells were acquired from the American Type Culture Collection (Manassas, VA, USA). Cells were cultured in 75 cm^2 flasks using DMEM—high glucose supplemented with a 10% heat inactivated FBS and 1% penicillin/streptomycin mixture, and maintained in a 5% CO2–95% air atmosphere, at 37 °C, until 80% confluence. Cells were routinely subcultured using trypsin-EDTA and, to avoid phenotypic alterations, used between passages 16 and 22. In all experiments, the cells were seeded at a density of 250,000 cells/cm^2 and used 24 h after seeding.
Neutral red uptake and resazurin reduction assays were performed after exposure of differentiated SH-SY5Y and HepG2 cells to the drugs under study. To obtain a concentration–response curve, a broad concentration range (0–2000 µM) was investigated, and cytotoxicity was evaluated 24 h after exposure in 96-well cell culture plates. As previously described, neutral red uptake assay is based on the incorporation of neutral red dye into the lysosomes of viable cells and the amount of dye incorporated represents the cells’ lysosomal functionality, and resazurin reduction assay is based on the irreversible reduction of resazurin dye to the fluorescent resorufin product by metabolically active cells.
Briefly, 24 h after being exposed to different concentrations of the compounds, differentiated SH-SY5Y cells were incubated with either neutral red (50 µg/mL) or resazurin (10 µg/mL) solutions for 90 min, at 37 °C, in a 5% CO2–95% air atmosphere. For HepG2 cells, 24 h after the exposure to the tested drugs, the cells were incubated with either neutral red (50 µg/mL) or resazurin (10 µg/mL) solutions for 45 and 60 min, respectively, at 37 °C, in a 5% CO2–95% air atmosphere.
In the neutral red uptake assay, at the end of the incubation period, the cell culture medium was removed and a solution of absolute ethyl alcohol/distilled water (1:1) with 5% acetic acid was added to extract the dye absorbed only by the viable cells. The absorbance was measured at 540 nm in a multi-well plate reader (PowerWaveX BioTek Instruments, Winooski, VT, USA). In the resazurin assay, at the end of the incubation period, the fluorescence was measured at 530 nm excitation and 590 nm emission wavelengths in a multi-well plate reader (PowerWaveX BioTek Instruments, Winooski, VT, USA).
The results were expressed as a percentage of control cells. At least four independent experiments were performed, in triplicate. For differentiated SH-SY5Y cells, the neutral red uptake assay was identified as the most sensitive assay and, therefore, used for the subsequent experiments. On the other hand, for HepG2 cells, the resazurin reduction assay was identified as the most sensitive assay and, therefore, used for the subsequent experiments.

hMAO-B = target: T2, hMAO-B (Homo sapiens, UniProt P27338); test: biochemical; details: read-out: % inhibition at 10 µM hMAO-B, kynuramine substrate
T2 construct: purchased Sigma Aldrich; host or cells: insect cells (BTI-TN-5B1-4), recombinant baculovirus
T2 sequence (P27338 1-520): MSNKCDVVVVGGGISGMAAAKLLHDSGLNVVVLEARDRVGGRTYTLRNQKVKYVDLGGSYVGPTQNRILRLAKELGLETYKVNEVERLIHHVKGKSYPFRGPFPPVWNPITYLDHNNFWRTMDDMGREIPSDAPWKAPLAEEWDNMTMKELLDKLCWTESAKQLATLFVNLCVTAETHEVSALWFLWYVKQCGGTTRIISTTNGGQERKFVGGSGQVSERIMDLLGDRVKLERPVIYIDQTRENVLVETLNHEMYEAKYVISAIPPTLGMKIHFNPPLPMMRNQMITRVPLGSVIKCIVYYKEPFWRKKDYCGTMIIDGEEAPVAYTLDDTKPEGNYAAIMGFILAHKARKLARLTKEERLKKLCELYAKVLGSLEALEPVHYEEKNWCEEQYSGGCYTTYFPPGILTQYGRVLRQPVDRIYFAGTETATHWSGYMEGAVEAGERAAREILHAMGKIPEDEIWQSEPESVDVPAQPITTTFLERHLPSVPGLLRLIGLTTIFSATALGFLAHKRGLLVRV
Protocol: as §1, §2

[3] = PAMPA-BBB permeability assay
Excerpt: In the present study we used a Parallel Artificial Membrane Permeation Assay (PAMPA) with a membrane mimicking the BBB phospholipidic composition (PAMPA-BBB) to evaluate and predict passive, transcellular permeability of the mescaline-NBOMe, 25B-NBOMe and 25N-NBOMe drugs.
The PiON inc database software was used for data analysis.

Row | SMILES | inhibition at 10 µM (hMAO-A) [%] | chromatographic logD [1] | Kpcell [2] | Bottom (baseline) (HepG2 cells) | Hill Slope (HepG2 cells) | Top (maximal effect) (HepG2 cells) | EC50 (HepG2 cells) [µM] | inhibition at 10 µM (hMAO-B) [%] | −Log Pe ± SD [3] | cytotoxicity (in words) (HepG2 cells; 0–2000 µM)
1 | COc1cc(CCN)c(OC)cc1Br [2C-B, 4-Bromo-2,5-dimethoxy-β-phenethylamine] | 17.5 | 0.7 | 3.08 | 1.072 | 3.731 | 89.29 | 206 | 27.2 | – | –
2 | COc1cc([N+](=O)[O-])c(OC)cc1CCNCc1ccccc1OC [25N-NBOMe, 4-Nitro-2-dimethoxy-N-(2-methoxybenzyl)-β-phenethylamine] | 8.9 | 1.96 | 5.05 | 3.464 | 5.089 | 87.26 | 99.7 | 25.5 | 4.6 ± 0.34 | –
3 | COc1cc(CCN)cc(OC)c1OC.Cl [Mescaline, 3,4,5-Trimethoxyphenethylamine hydrochloride] | 2.5 | – | – | – | – | – | – | 21.2 | – | not causing a significant cytotoxicity
4 | COc1cc([N+](=O)[O-])c(OC)cc1CCN [2C-N, 2,5-dimethoxy-4-nitrophenethylamine] | 5.8 | 0.37 | 0.94 | 0.2545 | 2.334 | ≈100 | 834 | 18 | – | –
5 | COc1ccccc1CNCCc1cc(OC)c(OC)c(OC)c1 [Mescaline-NBOMe, 3,4,5-Trimethoxy-N-(2-methoxybenzyl)-β-phenethylamine] | 3.9 | 1.34 | 2.71 | −0.3754 | 3.411 | 87.43 | 426 | 89 | 4.7 ± 0.49 | –
6 | COc1cc(CCNCc2ccccc2OC)c(OC)cc1Br [25B-NBOMe, 4-Bromo-2,5-dimethoxy-N-(2-methoxybenzyl)-β-phenethylamine] | 15 | 2.32 | 9.08 | 4.552 | 3.079 | 89.49 | 32.8 | 33.9 | 4.4 ± 0.36 | –
